From PMC5739799 (Oncotarget, 2017) come the findings set out here.

The data set is described as follows: Steady-state plasma pharmacokinetics after oral dosing for 5 days. It is filed as in vivo, BALB/c nu/nu mice. The procedure: Pharmacokinetic studies were performed in 6–8-week-old female BALB/c nu/nu mice (Charles River, Sulzfeld, Germany). […] Parent compounds and metabolites M-2 and M-5 were analyzed in plasma samples using validated bioanalytical liquid chromatography-tandem mass spectrometry (LC-MS/MS) methods according to an experimental protocol described earlier. PK parameters, namely the AUC(0–24)ss and Cmax, were calculated from plasma concentrations using a non-compartmental analysis.

Where [1] appears, read: after oral regorafenib 10 mg/kg/day for 5 days, total = molar sum of regorafenib, M-2, M-5.

Regarding `CNC(=O)c1cc(Oc2ccc(NC(=O)Nc3ccc(Cl)c(C(F)(F)F)c3)c(F)c2)cc[n+]1[O-]` [M-2], the “AUC(0–24)ss (percent of total)” value under setting [1] is given as 9% of total; the “AUC(0–24)ss (percent of total)” value (after oral sorafenib tosylate 30 mg/kg/day for 5 days, total = molar sum of sorafenib and M-2) is recorded as 1% of total.

Turning to `NC(=O)c1cc(Oc2ccc(NC(=O)Nc3ccc(Cl)c(C(F)(F)F)c3)c(F)c2)cc[n+]1[O-]` [M-5], under setting [1], the “AUC(0–24)ss (percent of total)” value is on record as 1% of total.
